According to patent US20050222258A1, “Pharmaceuticals comprising shikonins as active constituent” (priority 2003, published 2005):

Key:
HBeAg = assay: microbe, parasite or virus in culture; details: Hepatitis B virus, read-out: average inhibitory rate for HBeAg
HBsAg = assay: microbe, parasite or virus in culture; details: Hepatitis B virus, read-out: average inhibitory rate for HBsAg

CC(C)=CCC(OC(=O)C=C(C)C)C1=CC(=O)c2c(O)ccc(O)c2C1=O (stereo not drawn) [β,β-dimethylacrylshikonin]
inhibition at 30 µg/mL (HBeAg): 91.6% | inhibition at 30 µg/mL (HBsAg): 96.3%
